Results: patent US10047050B2, “3,4-di-substituted pyridine compound, methods of using and compositions comprising the same” (ARDEA BIOSCIENCES, INC., priority 2011, dated 2018)

Target: T1, URAT-1 model (Homo sapiens, UniProt Q96S37)
T1 sequence (Q96S37 1-553): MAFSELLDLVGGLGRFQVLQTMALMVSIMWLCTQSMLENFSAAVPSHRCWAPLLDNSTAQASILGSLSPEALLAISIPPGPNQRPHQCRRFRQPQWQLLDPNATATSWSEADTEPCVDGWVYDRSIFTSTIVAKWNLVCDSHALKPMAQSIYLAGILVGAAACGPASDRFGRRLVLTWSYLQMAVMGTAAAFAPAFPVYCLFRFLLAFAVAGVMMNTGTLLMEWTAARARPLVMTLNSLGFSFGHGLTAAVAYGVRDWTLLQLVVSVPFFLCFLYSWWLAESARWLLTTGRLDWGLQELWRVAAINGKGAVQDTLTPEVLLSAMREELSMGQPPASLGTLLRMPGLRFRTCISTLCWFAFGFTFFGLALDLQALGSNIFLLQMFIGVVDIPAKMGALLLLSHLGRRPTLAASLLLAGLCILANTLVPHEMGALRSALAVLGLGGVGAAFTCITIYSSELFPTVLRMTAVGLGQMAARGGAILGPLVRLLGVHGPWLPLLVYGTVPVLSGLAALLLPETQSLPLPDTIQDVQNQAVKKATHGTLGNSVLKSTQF
Experiment: URAT1-model assay, 14C-uric acid transport in HEK293/URAT1-model cells
Assay type: cell-based
Conditions: 125 μM 14C-uric acid, 10 minutes
Description: Transfections of HEK293 cells with a model URAT1 construct was performed using L2000 transfection reagent (Invitrogen) as described by the manufacturer. After 24 h the transfected cells were split into 10 cm tissue culture plates and grown for 1 day after which the medium was replaced with fresh growth medium containing G418 (Gibco) at 0.5 mg/ml final concentration. Drug-resistant colonies were selected after approximately 8 days and then tested for ^14C-uric acid transport activity. The HEK293/URAT1-model cells are plated on Poly-D-Lysine Coated 96-well Plates at a density of 125,000 cells per well.
Cells were grown overnight (20-26 hours) at 37° C. in an incubator. Plates were allowed to come to room temperature and media was washed out with one wash of 250 μl of Wash Buffer (125 mM Na Gluconate, 10 mM Hepes ph 7.3). […] Assay Buffer is 125 mM Sodium Gluconate, 4.8 mM Potassium Gluconate, 1.2 mM Potassium phosphate, monobasic, 1.2 mM magnesium sulfate, 1.3 mM Ca Gluconate, 5.6 mM Glucose, 25 mM HEPES, pH 7.3. Plates were incubated at room temperature for 10 minutes then washed 3 times with 50 μl Wash Buffer and 3 times with 250 μl Wash Buffer. Microscint 20 Scintillation Fluid was added and plates were incubated overnight at room temperature to equilibrate. Plates are then read on the TopCount Plate Reader and an EC50 value generated. […]

CC(C)(Sc1ccncc1-c1ccc(C#N)c2ccccc12)C(=O)O [2-((3-(4-cyanonaphthalen-1-yl)pyridin-4-yl)thio)-2-methylpropanoic acid]
EC50: ≤ 50 nM
